# Results as given in patent publication US10633367B2, “Fluorine- and/or deuterium-containing compounds for treating non-small cell lung cancer and related diseases” (X-Cutag Therapeutics, Inc., priority 2017, dated 2020).
# What was measured:
# [1] = test system: NCI-H1975 NSCLC cells carrying activating EGFR T790M mutation; assay: Cell viability of NCI-H1975 cells (CCK-8 assay); format: cell-based, human; conditions: 36 hour treatment, CCK-8, FIG. 13
# Description: NCI-H1975 is a model human NSCLC cell line that expresses activating EGER-T790M mutant, resulting in uncontrolled cell proliferation. Efficient inhibition of EGFR tyrosine kinase activity by TKI can affect cell growth, causing cell death. Here the inventors studied the effect of F1-osimertinib on cell viability of NCI-H1975 cells by […] (Cell Counting Kit-8 (CCK-8), Bimake.com, Houston, Tex.). 4,000 exponentially growing cells in 100 ul culture media were seeded in triplicate into 96-well plates and cultured to 70-80% continency. Cells were treated with indicated concentration of F1-osimertinib for 36 hour. 10 ul/well CCK-8 were added and continuously incubated till the absorbance (OD) at 450 nm reaches 0.8 measured by a microplate reader. Medium only wells were served as blank control. The cell viability was calculated as follows: Cell viability (%)=[A(F1-osimertinib)−A(blank)]/[A(solvent)−A(blank)]×100%. A: OD value measured.
# [2] = Co-incubation in dog plasma (ex-vivo stability, LC-MS/MS); format: in vitro ADME; conditions: beagle plasma, after incubating for two hours, co-incubated, FIG. 11
# Description: (§1) Briefly, 40 μL of osimertinib was co-incubated with an equal volume of one of the compounds described in this invention at the same concentration in blank plasma (human, beagle dog, Sprague-Dawley rat or CD-1 mouse). The tubes were incubated in a dry bath incubator for six time points ranging from 0 to 120 minutes. At each time point, the plasma was crashed with 200 μL internal standard working solution in acetonitrile, then vortexes and centrifuged. A portion of the supernatant was then transferred to autosampler vials for injection into the LC-MS/MS system. Chromatographic retention of osimertinib and the compounds described in the invention was obtained on an ACE 3 C18, 2.1×50 min, 3.0 μm column (Aberdeen, Scotland) under gradient conditions with a flow rate of 0.3 mL/minute. Analytes were detected by multiple reaction monitoring using an MDS Sciex API 4000 mass spectrometer (Applied Biosystems/MDS Sciex, Concord, Ontario, Canada) in positive mode. Data was captured using Analyst®, Version 1.6.2 (Applied Biosystems/MDS Sciex, Foster City, Calif.) and then exported to Excel® (Microsoft, Seattle, Wash.) for further data reduction.
# [3] = Co-incubation in mouse plasma (ex-vivo stability, LC-MS/MS); format: in vitro ADME, CD-1 mouse; conditions: after incubating for two hours, co-incubated, FIG. 12
# Description: as §1
# [4] = Co-incubation in human plasma (ex-vivo stability, LC-MS/MS); format: in vitro ADME; conditions: co-dosed with osimertinib at 1:1 ratio, 0 to 120 minutes, FIG. 9
# Description: as §1
# [5] = Co-incubation in rat plasma (ex-vivo stability, LC-MS/MS); format: in vitro ADME, Sprague-Dawley rat; conditions: after incubating for two hours, co-incubated, FIG. 10
# Description: as §1
SMILES,inhibition of NSCLC cell growth (cell viability) [1],remaining percentage of the initial concentration [2],remaining percentage [3],stability when incubated in human plasma [4],remaining percentage of the initial concentration [5]
[2H]C([2H])([2H])n1cc(-c2ccnc(Nc3cc(NC(=O)C(=C)F)c(N(C)CCN(C)C)cc3OC)n2)c2ccccc21 [F1-D3-osimertinib],significant inhibition of NSCLC cell growth,–,–,–,–
"C=CC(=O)Nc1cc(Nc2nccc(-c3cn(C)c4ccccc34)n2)c(OC)cc1N(C)CCN(C)C [osimertinib, N-(2-{2-dimethylaminoethyl-methylamino}-4-methoxy-5-{[4-(1-methylindol-3-yl)pyrimidin-2-yl]amino}phenyl)prop-2-enamide]",–,approximately 78%,92%,decreased rapidly,around 35%
C=C(F)C(=O)Nc1cc(Nc2nccc(-c3cn(C)c4ccccc34)n2)c(OC)cc1N(C)CCN(C)C [F1-osimertinib],significant inhibition of NSCLC cell growth,–,–,–,–
